Results from US20240182406A1, “COMPOUNDS AS SOLUBLE EPOXIDE HYDROLASE INHIBITORS” (UNIVERSITAT DE BARCELONA, priority 2021, published 2024).
Marks after values point to notes of the source that are not given here.

Tested on: GFAP
Assay: Western blot of hippocampus, neuroinflammation marker GFAP (5×FAD mice)
Format: in vivo, mouse
Conditions: 5×FAD male mice, 5 mg/kg, 4 weeks, Arbitrary Units, control as 100%
Excerpt: 5×FAD (tg6799) is an early-onset mouse transgenic model which overexpress mutant human APP(695) with the Swedish (K670N, M671L), Florida (I716V) and London (V717I) Familial Alzheimer's Disease (FAD) mutations along with human PS1 harbouring two FAD mutations (M146L and L286V). The Tg6799 line used is the original hybrid B6SJL background, and this hybrid B6SJL strain is used as a control of healthy animals. The mouse Thy1 promoter regulates both transgenes to drive overexpression in the brain. 5×FAD mice recapitulate major features of AD amyloid pathology and is a useful model of intraneuronal Abeta-42 induced neurodegeneration with amyloid increase brain content and amyloid plaque formation and tau hyperphosphorylation (J Neurosci. 2006, 26(40), 10129-10140).
The test compound was dissolved in 1.8% hydroxypropyl-beta-cyclodextrin and concentration in water was calculated according to the weekly animal consumption to reach the precise daily dose. A freshly made weekly replaces the drinking solution. The amount of water that the animals drink was monitored weekly, by the cage, and drug concentration was adjusted every week to reach the precise dose. […]
Afterwards, membranes were washed and incubated with secondary antibodies for 1 h at room temperature. […] Immunodetection of GADPH routinely monitored protein loading. […]

## O=C(NC12CC3CC(Cl)(CC(C1)c1ccccc13)C2)N[C@H]1CC[C@H](Oc2ccc(C(=O)O)cc2)CC1 [Example 2, 4-[((1r,4r)-4-(3-(9-chloro-5,6,8,9,10,11-hexahydro-7H-5,9:7,11-dimethanobenzo[9]annulen-7-yl)ureido)cyclohexyl)oxy]benzoic acid]
Listed as Cpd. Ex. 2
  GFAP protein levels: 125.85 ± 9.21*^
Listed as compound of example 2
  GFAP protein levels: significant diminution in the protein levels
